Reference: patent US8507411B2, “Neoglycorandomization and digitoxin analogs” (priority 2004, dated 2013)
Where two headings read alike, the source gives them in different places.

Columns and labels:
[1] = tested on: HT-29; test: Cell titer-glo cytotoxicity assay, HT-29; type: cell-based, human; conditions: HT-29, Cell titer-glo
Excerpt: (§1) FIG. 7 is a graphical summary of the results of the IC50 data from cytotoxicity assays. […] In the assay, live cells are quantified by measuring the luminescent signal resulting from the reaction between cellular ATP and luciferin to form oxyluciferin. The IC50 value for each compound represents at least four replicates of dose-response experiments conducted over six concentrations at two-fold dilutions.
(§2) The anticancer activities of ten panel analogues (3a-c,e,f and 4a-c,e,f) and digitoxin (1) were assessed using a high-throughput cytotoxicity assay on four human cancer cell lines, (FIG. 7) representing lung, colorectal, and ovarian carcinomas, as well as NCI/ADR-RES, a drug-resistant ovarian carcinoma line (For years, NCI/ADR-RES cells have been misidentified as drug-resistant MCF-7 breast adenocarcinoma cells, but recently this line has been shown definitively to be a drug-resistant line derived from OVCAR-8 ovarian adenocarcinoma cells. Liscovitch, M. et al., Cancer Lett. (2007) 245, 350-352.
(§3) All cell lines were maintained as previously reported (Langenhan, J. M. et al., Proc. Natl. Acad. Sci. (2005) 102, 12305-12310.) Cells were harvested by trypsinization using 0.25% trypsin and 0.1% EDTA and then counted in a Cellometer Auto T4 cell counter (Nexcelom, inc), before dilution for assay plating. […] Each plate was read for luminescence. […]

[2] = tested on: NCI/ADR-RES; test: Cell titer-glo cytotoxicity assay, NCI/ADR-RES; type: cell-based, human
Excerpt: as §1, §2
(§4) All cell lines were maintained as previously reported (Langenhan, J. M. et al., Proc. Natl. Acad. Sci. (2005) 102, 12305-12310.) Cells were harvested by trypsinization using 0.25% trypsin and 0.1% EDTA and then counted in a Cellometer Auto T4 cell counter (Nexcelom, inc), before dilution for assay plating. Cell plating, compound handling and assay set up were performed as previously reported^1 except for the cells were plated in 50 μL volumes in 384 well clear bottom, tissue culture plates (Corning-Costar, Inc). Compounds were added from the 384-well compound stock plates at a 1:100 dilution using a Biomek FX liquid handler equipped with a 384 channel head (Beckman Coulter, Inc.). Cell titer-glo reagent (15 μL) (Promega Corporation, Inc.) was added and incubated for 10 min at room temperature with gentle agitation to lyse the cells. Each plate was read for luminescence. […] IC50 values were determined using XLFit 4.0 as previously reported (see Table 7).

[3] = tested on: SKOV-3; test: Cell titer-glo cytotoxicity assay, SKOV-3; type: cell-based, human
Excerpt: as §1, §2, §4

[4] = tested on: MCF7; test: High-throughput calcein AM cytotoxicity assay, MCF7; type: cell-based, human; conditions: read-out: IC50, MCF7
Excerpt: (§5) Standard errors are depicted with error bars.

[5] = target: T1, Na+/K+-ATPase (Homo sapiens, UniProt P05023); test: Non-radioactive rubidium ion uptake assay, HEK-293 cells; type: cell-based; conditions: read-out: Na+/K+-ATPase Inhibition IC50
T1 construct: endogenous in cells; host or cells: HEK-293
Procedure: Na/K-ATPase Assays. Inhibition of Na^+/K^+-ATPase on HEK-293 cells and CHO-K1 cells by the library hits was determined by Aurora Biomed, Inc. using a high-throughput non-radioactive rubidium ion uptake assay. Experiments were conducted in duplicate using three different concentrations. Within each experiment, percent inhibition values at the three concentrations were expressed as the percent reduction of the maximum absorption signal observed for a 0 nM control. IC50 values were determined using the following formula: IC50=[(50−low %)/(high %−low %)]×(high conc.−low conc.)+low conc.
To assess how these structural modifications impact the ability of library members to inhibit Na^+/K^+-ATPases, a fundamental activity of cardiac glycosides (Paula, S., et al., (2005) Biochemistry 44, 498-510), library hits 5β, 15β, 23β, 27β, 33β, 40β, and digitoxin (1) were submitted to a non-radioactive rubidium uptake assay to gauge Na^+/K^+-ATPase inhibition in both […] human embryonic kidney cells and CHO-K1 hamster ovary cells (Gill, S. et al., (2004) ASSAY and Drug Development Technologies 2, 535-542).

[6] = tested on: NCI-H460; test: High-throughput calcein AM cytotoxicity assay, NCI-H460; type: cell-based, human; conditions: read-out: IC50, NCI-H460
Excerpt: as §5

[7] = tested on: A549; test: High-throughput calcein AM cytotoxicity assay, A549; type: cell-based, human; conditions: read-out: IC50, A549
Excerpt: as §5

[8] = tested on: HCT-116; test: High-throughput calcein AM cytotoxicity assay, HCT-116; type: cell-based, human
Excerpt: as §5

[9] = tested on: NCI-H460; test: Cell titer-glo cytotoxicity assay, NCI-H460; type: cell-based, human
Excerpt: as §1, §2, §3

[10] = Hydrolytic stability of the neoglycosidic linkage; type: physicochemical; conditions: neutral or basic conditions (pH 7, pH 9), 3 mM in 1:1 DMSO/buffer, one month
Procedure: FIG. 4 is a graphic representation of the results of studies on the hydrolytic stability of neoglycoside 4α. The chemical stability of the neoglycosidic linkage was examined by monitoring the hydrolytic degradation of neoglycoside 4α in a 3 mM solution of 1:1 DMSO/buffer. Three buffers were used, 50 mM acetate buffer (pH 5), 50 mM phosphate buffer (pH 7), and 50 mM Tris buffer (pH 9). Neoglycoside degradation was monitored by reverse phase HPLC on an Agilent Zorbax Eclipse XDB-C8 column (4.6×150 mm) with a flow rate of 0.8 mL min^−1 and a linear gradient of 49% CH3OH/H2O to 89% CH3OH/H2O over 20 min. At t=0, neoglycoside 4α in 500 μL DMSO was added to 500 μL buffer, and the resulting solution was vortexed for 40 sec, then immediately injected onto the HPLC. Peak areas at 220 nm were used to estimate the neoglycoside/aglycon ratio, which is reported as “percent neoglycoside remaining” [Aneoglycoside/(Aneoglycoside+Aaglycon)] for each of the three buffer systems.
Hydrolytic Stability of 4α. The chemical stability of the neoglycosidic linkage was examined by monitoring the hydrolytic degradation of neoglycoside 4α in a 3 mM solution of 1:1 DMSO/buffer. Three buffers were used, 50 mM acetate buffer (pH 5), 50 mM phosphate buffer (pH 7), and 50 mM Tris buffer (pH 9). Neoglycoside degradation was monitored by reverse phase HPLC on an Agilent Zorbax Eclipse XDB-C8 column (4.6×150 mm) with a flow rate of 0.8 mL min^−1 and a linear gradient of 49% CH3OH/H2O to 89% CH3OH/H2O over 20 min. At t=0, neoglycoside 4α in 500 μL DMSO was added to 500 μL buffer, and the resulting solution was vortexed for 40 sec, then immediately injected onto the HPLC. Peak areas at 220 nm were used to estimate the neoglycoside/aglycon ratio, which is reported as “percent neoglycoside remaining” [Aneoglycoside/(Aneoglycoside+Aaglycon)] for each of the three buffer systems (see FIG. 4).
The chemical stability of the neoglycosidic linkage was examined by monitoring the hydrolytic degradation of neoglycoside 4α in a 3 mM solution of 1:1 DMSO/buffer using buffers at three different pHs.

[11] = SKOV-3, Cell titer-glo, read-out: IC50
[12] = HCT-116 cells, read-out: IC50, HCT-116

CON([C@H]1CC[C@@]2(C)[C@H](CC[C@@H]3[C@@H]2CC[C@]2(C)[C@@H](C4=CC(=O)OC4)CC[C@]32O)C1)[C@H]1OC[C@H](O)[C@H](O)[C@@H]1O [5β, L-riboside]
IC50 [1]: 80 nM
IC50 ([2]; Cell titer-glo, read-out: IC50): 45 nM
IC50 [3, 11]: > 1000 nM
IC50 ([4]; MCF7 cells): 190 nM
IC50 [5]: > 300 µM
IC50 ([6]; NCI-H460 cells): 53 nM
IC50 ([7]; A549 cells): 33 nM
IC50 ([8]; HCT-116, 72 h, calcein AM, read-out: IC50): 18 ± 2 nM
IC50 [8, 12]: 18 nM

CON([C@H]1CC[C@@]2(C)[C@H](CC[C@@H]3[C@@H]2CC[C@]2(C)[C@@H](C4=CC(=O)OC4)CC[C@]32O)C1)[C@H]1OC[C@H](O)[C@@H](O)[C@@H]1O [23β, L-xyloside]
IC50 [1]: 66 nM
IC50 ([2]; Cell titer-glo, read-out: IC50): 72 nM
IC50 [3, 11]: > 1000 nM
IC50 [9]: 55 nM
IC50 ([4]; MCF7 cells): 230 nM
IC50 [5]: > 300 µM
IC50 ([6]; NCI-H460 cells): 80 nM
IC50 ([7]; A549 cells): 79 nM
IC50 [8, 12]: 100 nM

CON([C@H]1CC[C@@]2(C)[C@H](CC[C@@H]3[C@@H]2CC[C@]2(C)[C@@H](C4=CC(=O)OC4)CC[C@]32O)C1)[C@@H]1O[C@H](CO)[C@@H](O)[C@H](O)[C@@H]1O [27β, D-mannoside]
IC50 ([4]; MCF7 cells): 1700 nM
hydrolytic stability [10]: no hydrolytic degradation
IC50 [5]: > 200 µM
IC50 ([6]; NCI-H460 cells): 700 nM
IC50 ([7]; A549 cells): 630 nM
IC50 [8, 12]: 800 nM

C[C@H]1O[C@@H](O[C@H]2[C@@H](O)C[C@H](O[C@H]3[C@@H](O)C[C@H](O[C@H]4CC[C@@]5(C)[C@H](CC[C@@H]6[C@@H]5CC[C@]5(C)[C@@H](C7=CC(=O)OC7)CC[C@]65O)C4)O[C@@H]3C)O[C@@H]2C)C[C@H](O)[C@@H]1O [digitoxin]
IC50 ([2]; Homo sapiens): 69 nM
IC50 ([3]; Homo sapiens, SK-OV-3): > 1000 nM
IC50 ([4]; Homo sapiens, MCF7, MCF7 cells): 320 nM
IC50 [5]: 75.4 ± 0.5 µM
IC50 ([6]; Homo sapiens, NCI-H460, NCI-H460 cells): 280 nM
IC50 ([7]; Homo sapiens, A549, A549 cells): 280 nM
IC50 ([8]; Homo sapiens, HCT-116, HCT-116 cells, read-out: IC50, HCT-116): 170 nM
